Experimental data: article PMC7311950, “Potent Tetrahydroquinolone Eliminates Apicomplexan Parasites” (Frontiers in Cellular and Infection Microbiology, 2020)
Read-outs that look alike come from different tables or passages of the source.

How the values were obtained:
[1] = tested on: T. gondii mitochondrial membrane potential; experiment: T. gondii mitochondrial membrane potential, safranine method; type: cell-based, Toxoplasma gondii; details: permeabilized T. gondii tachyzoites, safranin O
Description: The mitochondrial membrane potential was measured by the safranine method according to Vercesi et al. ([1998]). Freshly egressed T. gondii tachyzoites were filtered and washed twice with intracellular buffer (125 mM sucrose, 65 mM KCl, 10 mM HEPES-KOH buffer, pH 7.2, 1 mM MgCl2, and 2.5 mM potassium phosphate). After washing, the parasites were resuspended in the same buffer at 10^9/mL. An aliquot of 50 μL of this suspension was added to a cuvette containing Safranin O, 2.5 μM and Succinate 1 mM in final volume of 2 mL of the intracellular buffer. The fluorescence was measured with a Hitachi 7000 spectrofluorometer with settings Ex. 495/Em. 586. Once the baseline fluorescence was stable, 30 μM digitonin was added to permeabilize the parasites. Eighty five seconds after permeabilization, the THQ derivatives, dissolved in DMSO, were added. Five micromolars of FCCP (Carbonyl cyanide-4-(trifluoromethoxy) phenylhydrazone) was used as an uncoupler reference for calculations and its effect was considered 100%. We used similar conditions for measuring the mitochondrial membrane potential of mammalian cells with the following changes: the mammalian cells were resuspended at 10^8/mL. We also used 50 μL of this suspension for each experiment in a total volume of 2 mL. The substrate used for mammalian cells was 5 mM glutamate and 5 mM malate. A higher concentration of digitonin (50 μM) was used to permeabilize the mammalian cells. The compounds were added at ~400 s after permeabilization. Each experiment was repeated at least three times in duplicates. Statistical analysis, unpaired student t-test, was performed using GraphPad Prism 8.0 (GraphPad Software, Inc., San Diego, CA).
Mitochondrial membrane potential measurements were performed with permeabilized T. gondii tachyzoites in suspension using safranin O, which loads into polarized membranes [see section Materials and Methods in the Supplemental Materials (Vercesi et al., [1998])]. T. gondii tachyzoites were permeabilized with digitonin to allow the mitochondrial substrate succinate to cross the membrane and energize the mitochondrion. The fluorescence of safranin O, which loads into energized mitochondria was used to measure the membrane potential. The energized state of the mitochondrion is observed by a decrease in fluorescence (Figures 3A,C,E). Trifluoromethoxy carbonylcyanide phenylhydrazone (FCCP) was used to depolarize the membrane, which is observed as an increase in fluorescence (Figures 3A,B). JAG21 depolarized the membrane potential even at concentrations as low as 2 nM (Figures 3C,D). JAG21 and Atovaquone had similar effects on the mitochondrial membrane potential (Figure 3D). […]

[2] = tested on: P. falciparum strains D6, TM91-C235, W2, C2B; experiment: Malaria SYBR Green I-Based Fluorescence (MSF) assay; type: cell-based; details: Plasmodium falciparum
Description: Malaria potency testing in vitro was performed using 4 different P. falciparum strains, D6, TM91-C235, W2, and C2B. The D6 strain is a drug sensitive strain from Sierra Leone, the TM91-C235 strain is a multi-drug resistant strain from Thailand, the W2 strain is a chloroquine resistant strain from Thailand, and the C2B strain is a multi-drug resistant strain with resistance against atovaquone. These assays were performed as described below.
Compound activity against P. falciparum, was tested using the Malaria SYBR Green I–Based Fluorescence (MSF) Assay. The complete method for performing this microtiter assay is described in previous work published by Plouffe et al. ([2008]) and Johnson et al. ([2007]). In brief, this assay uses the binding of the fluorescent dye SYBR Green I to malaria DNA to measure parasite growth in the presence of 2-fold diluted experimental or control. The relative fluorescence of the intercalated SYBR Green I proportional to parasite growth, and inhibitory compounds will result in lower observed fluorescence compared to untreated parasites.

[3] = tested on: T. gondii EGS strain bradyzoites; experiment: In vitro challenge assay for EGS strain bradyzoites; type: cell-based, Toxoplasma gondii; details: for number of true cysts and small organisms: EGS strain, at 1 and 10 μM, immunofluorescence microscopy; for IC50: EGS strain in HFF, Figure 1A, read-out: Brady IC50
Description: HFF cells were grown in IMDM on removable, sterile glass cover slips in the bottom of a clear, flat-bottomed 24-well plate. Cultures were infected with 3 × 10^4 EGS strain parasites per well, in 0.5 mL media. The plate was returned to incubator at 37°C overnight. The following day, the media was removed. Colorless IMDM and compounds were added to make various concentrations of the drug. Total volume was 0.5 mL. Two wells had media only, as a control. Plates were returned to the 37°C incubator for 72 h, checked once each 24 h. If tachyzoites were visible in the control before 72 h, cells were fixed and stained. Cells were fixed using 4% paraformaldehyde and stained with Fluorescein-labeled Dolichos Biflorus Agglutinin, DAPI, and antibody to BAG1. Disks were removed, mounted on glass slides, and visualized using microscopy (Nikon Tl7). Slides were scanned using a CRi Panoramic Scan Whole Slide Scanner and viewed using Panoramic Viewer Software. Effects of compounds were quantitated by counting cysts in controls and treated cultures. Dolichos staining delimited structures and single organisms that remained were counted in a representative field of view. This was then multiplied by a factor determined by the total area of the cover slip in order to estimate the number of cysts and organisms in each condition. When the following forms were observed: “true cysts” with a dolichos-staining wall, “pseudocysts” or tight clusters of parasites, and small organisms, if there were fewer than four parasites visible in a cluster, organisms were counted individually (as “small organisms”). The entire scanned coverslip with all fields was also reviewed by 3 observers to confirm consistency.

[4] = C2B, multi-drug resistant strain with resistance against atovaquone, read-out: SYBR Green C2B IC50
[5] = D6, drug sensitive strain, read-out: SYBR Green D6 IC50
[6] = TM91-C235, multi-drug resistant strain, read-out: SYBR Green C235 IC50
[7] = W2, chloroquine resistant strain, read-out: SYBR Green W2 IC50

With `Cc1[nH]c2c(c(=O)c1-c1ccc(Oc3ccc(Cl)cc3)cc1)CCCC2` [JAG50] the “concentration that depolarized the mitochondrial membrane potential” value [1] was at least 200 nM, the IC50 [2, 4] was 36.4 nM and the IC50 [2, 5] was 46.6 nM. The IC50 [2, 6] was 69.1 nM, the IC50 [2, 7] was 31.4 nM and the “number of true cysts and small organisms” value [3] was “statistically significant reduction”. The IC50 ([3]; Toxoplasma gondii) was 2000 nM.

`Cc1[nH]c2c(c(=O)c1-c1ccc(Oc3ccc(OC(F)(F)F)cc3)cc1)CCCC2` [JAG21, 2-Methyl-3-(4-(4-(Trifluoromethoxy)Phenoxy)Phenyl)-5,6,7,8-Tetrahydroquinolin-4-One] was tested, and the “concentration that depolarized the mitochondrial membrane potential” value [1] was at most 2 nM, the IC50 [2, 4] was 40.4 nM and the IC50 ([2]; D6, TM91-C235, W2 and C2B, range over strains, read-out: IC50 values against drug sensitive and resistant strains) was 14 to 61 nM. It also gave an IC50 [2, 5] of 14.3 nM, an IC50 [2, 6] of 61.6 nM and an IC50 [2, 7] of 55.2 nM. The IC90 ([2]; supplement summary, read-out: IC90, drug resistant Plasmodium falciparum in vitro) was under 50 nM, the “EGS bradyzoites in treated cultures” value ([3]; 500 nM) was “we do not see EGS bradyzoites” and the “number of true cysts and small organisms” value [3] was “statistically significant reduction”. It also gave an IC50 ([3]; Toxoplasma gondii) of 2000 nM and an IC90 ([3]; Toxoplasma gondii, supplement summary) of under 1000 nM.
